How the values were obtained:
[1] = The drug is tested on Bacteroides finegoldii strain: DSM17565 for biotransformation. The drug concentrations were measured before and after a 12-h incubation by liquid-chromatography-coupled mass spectrometry (LC–MS); details: 2 µM
[2] = The drug is tested on Bacteroides pectinophilus strain: ATCC43243 for biotransformation. The drug concentrations were measured before and after a 12-h incubation by liquid-chromatography-coupled mass spectrometry (LC–MS); details: 2 µM
[3] = The drug is tested on Providencia stuartii strain: ATCC25827 for biotransformation. The drug concentrations were measured before and after a 12-h incubation by liquid-chromatography-coupled mass spectrometry (LC–MS); details: 2 µM
[4] = bacteroides fragilis, 12 h, 2 µM
Description: The drug is tested on Bacteroides fragilis strain: DS-208 for biotransformation. The drug concentrations were measured before and after a 12-h incubation by liquid-chromatography-coupled mass spectrometry (LC–MS)

[5] = enterocloster bolteae, 12 h, 2 µM
Description: The drug is tested on Clostridium bolteae strain: ATCCBAA-613 for biotransformation. The drug concentrations were measured before and after a 12-h incubation by liquid-chromatography-coupled mass spectrometry (LC–MS)

[6] = The drug is tested on Clostridium sporogenes strain: ATCC15579 for biotransformation. The drug concentrations were measured before and after a 12-h incubation by liquid-chromatography-coupled mass spectrometry (LC–MS); details: 2 µM
[7] = The drug is tested on Edwardsiella tarda strain: ATCC23685 for biotransformation. The drug concentrations were measured before and after a 12-h incubation by liquid-chromatography-coupled mass spectrometry (LC–MS); details: 2 µM
[8] = The drug is tested on Collinsella aerofaciens strain: ATCC25986 for biotransformation. The drug concentrations were measured before and after a 12-h incubation by liquid-chromatography-coupled mass spectrometry (LC–MS); details: 2 µM
[9] = victivallis vadensis, 12 h, 2 µM
Description: The drug is tested on Victivallis vadensis strain: ATCC BAA-548 for biotransformation. The drug concentrations were measured before and after a 12-h incubation by liquid-chromatography-coupled mass spectrometry (LC–MS)

[10] = The drug is tested on Blautia hansenii strain: DSM20583 for biotransformation. The drug concentrations were measured before and after a 12-h incubation by liquid-chromatography-coupled mass spectrometry (LC–MS); details: 2 µM
[11] = bacteroides eggerthii, 12 h, 2 µM
Description: The drug is tested on Bacteroides eggerthii strain: DSM20697 for biotransformation. The drug concentrations were measured before and after a 12-h incubation by liquid-chromatography-coupled mass spectrometry (LC–MS)

[12] = The drug is tested on Parabacteroides merdae strain: ATCC43184 for biotransformation. The drug concentrations were measured before and after a 12-h incubation by liquid-chromatography-coupled mass spectrometry (LC–MS); details: 2 µM
[13] = roseburia intestinalis, 12 h, 2 µM
Description: The drug is tested on Roseburia intestinalis strain: L1-82 for biotransformation. The drug concentrations were measured before and after a 12-h incubation by liquid-chromatography-coupled mass spectrometry (LC–MS)

[14] = The drug is tested on Collinsella intestinalis strain: DSM13280 for biotransformation. The drug concentrations were measured before and after a 12-h incubation by liquid-chromatography-coupled mass spectrometry (LC–MS); details: 2 µM
[15] = limosilactobacillus reuteri cf48-3a, 12 h, 2 µM
Description: The drug is tested on Lactobacillus reuteri CF48-3A strain: BEI HM-102 for biotransformation. The drug concentrations were measured before and after a 12-h incubation by liquid-chromatography-coupled mass spectrometry (LC–MS)

[16] = parabacteroides johnsonii, 12 h, 2 µM
Description: The drug is tested on Parabacteroides johnsonii strain: DSM18315 for biotransformation. The drug concentrations were measured before and after a 12-h incubation by liquid-chromatography-coupled mass spectrometry (LC–MS)

[17] = The drug is tested on Anaerotruncus colihominis strain: DSM17241 for biotransformation. The drug concentrations were measured before and after a 12-h incubation by liquid-chromatography-coupled mass spectrometry (LC–MS); details: 2 µM
[18] = The drug is tested on Eubacterium rectale strain: ATCC33656 for biotransformation. The drug concentrations were measured before and after a 12-h incubation by liquid-chromatography-coupled mass spectrometry (LC–MS); details: agathobacter rectalis, 2 µM
[19] = The drug is tested on Clostridium symbiosum strain: ATCC14940 for biotransformation. The drug concentrations were measured before and after a 12-h incubation by liquid-chromatography-coupled mass spectrometry (LC–MS); details: 2 µM
[20] = The drug is tested on Escherichia coli strain: BW25113 for biotransformation. The drug concentrations were measured before and after a 12-h incubation by liquid-chromatography-coupled mass spectrometry (LC–MS); details: 2 µM

SMILES | Bacterial Biotransformation [1] | Bacterial Biotransformation [2] | Bacterial Biotransformation [3] | Bacterial Biotransformation [4] | Bacterial Biotransformation [5] | Bacterial Biotransformation [6] | Bacterial Biotransformation [7] | Bacterial Biotransformation [8] | Bacterial Biotransformation [9] | Bacterial Biotransformation [10] | Bacterial Biotransformation [11] | Bacterial Biotransformation [12] | Bacterial Biotransformation [13] | Bacterial Biotransformation [14] | Bacterial Biotransformation [15] | Bacterial Biotransformation [16] | Bacterial Biotransformation [17] | Bacterial Biotransformation [18] | Bacterial Biotransformation [19] | Bacterial Biotransformation [20]
CCOC(=O)C1=C(C)NC(C)=C(C(=O)OC)C1c1cccc([N+](=O)[O-])c1 (stereo not given) [NITRENDIPINE] | Compound metabolized | Compound metabolized | Compound NOT metabolized | Compound metabolized | Compound metabolized | Compound metabolized | Compound metabolized | Compound metabolized | Compound metabolized | Compound metabolized | Compound metabolized | Compound metabolized | Compound metabolized | Compound metabolized | Compound metabolized | Compound metabolized | Compound metabolized | Compound metabolized | Compound metabolized | Compound metabolized
CN1CCc2cccc3c2[C@H]1Cc1ccc(O)c(O)c1-3 [APOMORPHINE] | Compound NOT metabolized | Compound NOT metabolized | Compound NOT metabolized | Compound NOT metabolized | Compound NOT metabolized | Compound NOT metabolized | Compound NOT metabolized | Compound NOT metabolized | Compound NOT metabolized | Compound NOT metabolized | Compound NOT metabolized | Compound NOT metabolized | Compound NOT metabolized | Compound NOT metabolized | Compound NOT metabolized | Compound NOT metabolized | Compound NOT metabolized | Compound NOT metabolized | Compound NOT metabolized | Compound NOT metabolized
CC[C@@H](CO)NC(=O)[C@@H]1C=C2c3cccc4c3c(cn4C)C[C@H]2N(C)C1.O=C(O)/C=C\C(=O)O [METHYSERGIDE MALEATE] | Compound metabolized | Compound metabolized | Compound metabolized | Compound metabolized | Compound metabolized | Compound metabolized | Compound metabolized | Compound metabolized | Compound metabolized | Compound metabolized | Compound metabolized | Compound metabolized | Compound metabolized | Compound NOT metabolized | Compound metabolized | Compound metabolized | Compound metabolized | Compound metabolized | Compound metabolized | Compound metabolized
COc1ccc2[nH]c([S+]([O-])Cc3ncc(C)c(OC)c3C)nc2c1 (stereo not given) [OMEPRAZOLE] | Compound metabolized | Compound metabolized | Compound metabolized | Compound metabolized | Compound metabolized | Compound metabolized | Compound metabolized | Compound metabolized | Compound metabolized | Compound metabolized | Compound metabolized | Compound metabolized | Compound metabolized | Compound metabolized | Compound metabolized | Compound metabolized | Compound metabolized | Compound metabolized | Compound metabolized | Compound metabolized
CCOc1ccc2nc(S(N)(=O)=O)sc2c1 [ETHOXZOLAMIDE] | Compound metabolized | Compound metabolized | Compound metabolized | Compound NOT metabolized | Compound metabolized | Compound metabolized | Compound metabolized | Compound metabolized | Compound metabolized | Compound metabolized | Compound metabolized | Compound metabolized | Compound metabolized | Compound metabolized | Compound metabolized | Compound metabolized | Compound metabolized | Compound metabolized | Compound metabolized | Compound metabolized
CC(C)(C)NCC(O)c1cc(Cl)c(N)c(Cl)c1 (stereo not given) [CLENBUTEROL] | Compound NOT metabolized | Compound NOT metabolized | Compound NOT metabolized | Compound NOT metabolized | Compound NOT metabolized | Compound NOT metabolized | Compound NOT metabolized | Compound NOT metabolized | Compound NOT metabolized | Compound NOT metabolized | Compound NOT metabolized | Compound NOT metabolized | Compound NOT metabolized | Compound NOT metabolized | Compound NOT metabolized | Compound NOT metabolized | Compound NOT metabolized | Compound NOT metabolized | Compound NOT metabolized | Compound NOT metabolized
N[C@@H](Cc1ccc(N(CCCl)CCCl)cc1)C(=O)O | Compound metabolized | Compound metabolized | Compound metabolized | Compound metabolized | Compound metabolized | Compound metabolized | Compound metabolized | Compound metabolized | Compound metabolized | Compound metabolized | Compound metabolized | Compound metabolized | Compound metabolized | Compound metabolized | Compound metabolized | Compound metabolized | Compound metabolized | Compound metabolized | Compound metabolized | Compound metabolized
CC(C)C[C@H]1C(=O)N2CCC[C@H]2[C@]2(O)O[C@](NC(=O)[C@@H]3C=C4c5cccc6[nH]c(Br)c(c56)C[C@H]4N(C)C3)(C(C)C)C(=O)N12.CS(=O)(=O)O [BROMOCRIPTINE MESYLATE] | Compound metabolized | Compound metabolized | Compound metabolized | Compound metabolized | Compound metabolized | Compound metabolized | Compound metabolized | Compound metabolized | Compound metabolized | Compound metabolized | Compound metabolized | Compound metabolized | Compound metabolized | Compound metabolized | Compound metabolized | Compound metabolized | Compound metabolized | Compound metabolized | Compound metabolized | Compound metabolized

Source: ChEMBL document CHEMBL5303573, “Mapping human microbiome drug metabolism by gut bacteria and their genes” (Nature, 2019)
